Literature values as cited in US5872104A, “Combinations and methods for reducing antimicrobial resistance” (Oridigm Corporation, priority 1994, dated 1999).
Values after ≈ are worked out from the molar mass of the structure shown. Where a name gives a salt, the structure may show the parent alone.

Key:
bovine liver SAHH = settings: 0.2 mM; cited from earlier work
[1] = tested on: mature rRNA in Novikoff hepatoma cells; settings: cited from earlier work
[2] = tested on: E. coli glutathione synthetase; settings: cited from earlier work
Dictyostelium discoideum = settings: 5 mM, four hours; cited from earlier work
Mycoplasma pneumoniae = settings: cited from earlier work
Ureaplasma urealyticum = settings: cited from earlier work
Staphylococcus aureus = settings: cited from earlier work
Mycoplasma hominis = settings: cited from earlier work
SAH in hepatocytes = settings: cited from earlier work
[3] = tested on: tRNA methylases isolated from E. coli; settings: cited from earlier work
rRNA of S. cerevisiae = settings: cited from earlier work
RNA methylation = settings: cited from earlier work
SAM synthetase = settings: cited from earlier work
[4] = tested on: 28S rRNA, 18S rRNA and tRNA; settings: NPA 10 μM; c^3 -NPA 10 μM; c^3 -Ari 100 μM; cited from earlier work
SAHH hydrolase = settings: cited from earlier work
tRNA methylases = settings: cited from earlier work
adenosine deaminase = settings: cited from earlier work
lysosomal ADA = settings: 0.2 mM; cited from earlier work
[5] = target: ornithine decarboxylase (ODC); settings: cited from earlier work
glutathione = settings: ip.; 4.5 mmol/kg buthionine sulfoximine and […] diethyl maleate; cited from earlier work
[6] = tested on: methylation reactions in peripheral blood monocytes; settings: cited from earlier work

For `CNc1ncnc2c1ncn2[C@@H]1C[C@H](CO)[C@@H](O)[C@H]1O` [N^6 -methylaristeromycin], the inhibition (bovine liver SAHH) is given as 22%.
For `Nc1nc2c(ncn2[C@@H]2O[C@H](CO)[C@@H](O)[C@H]2O)c(=S)[nH]1` [6-thioguanosine], the “formation of mature rRNA” value [1] is given as “inhibit the formation of mature 28S and 18”.
In the case of `COc1cc(Cc2cnc(N)nc2N)cc(OC)c1OC` [trimethoprim], the inhibition [2] is listed as “potently inhibited”.
For `NCC(O)CN` [1,3-diaminopropan-2-ol], the “growth of D. discoideum” value (Dictyostelium discoideum) is listed as “arrested in four hours”.
In the case of `CCC[C@@H]1C[C@@H](C(=O)N[C@@H]([C@H]2O[C@H](SC)[C@H](O)[C@@H](O)[C@H]2O)[C@@H](C)O)N(C)C1` [Lincomycin], the MIC50 (Mycoplasma pneumoniae) is given as 8 mg/L (≈ 19.7 µM), the MIC90 (Mycoplasma pneumoniae) is given as 32 mg/L (≈ 78.7 µM) and the Range (Mycoplasma pneumoniae) is given as 2-32. The MIC50 (Ureaplasma urealyticum) was at least 128 mg/L, the MIC90 (Ureaplasma urealyticum) was at least 128 mg/L and the MIC50 (Staphylococcus aureus) was 1 mg/L (≈ 2.46 µM). The MIC90 (Staphylococcus aureus) was 1 mg/L (≈ 2.46 µM), the Range (Staphylococcus aureus) was 0.5-512 and the MIC50 (Mycoplasma hominis) was 2 mg/L (≈ 4.92 µM). The MIC90 (Mycoplasma hominis) was 4 mg/L (≈ 9.84 µM) and the Range (Mycoplasma hominis) was 0.5-16.
For `Nc1ncnc2c1ncn2C[C@H](O)[C@H](O)C(=O)O` [L-eritadenine], the “inactivation of SAH” value (SAH in hepatocytes) is given as “inactivate SAH in hepatocytes”.
In the case of `C[C@](N)(CCCN)C(=O)O` [α-methylornithine], the “growth of D. discoideum” value (Dictyostelium discoideum) is given as “arrested in four hours”.
For `Nc1ncnc2c1ncn2[C@@H]1O[C@H](CO)[C@@H](O)[C@H]1O` [adenosine], the “inhibition of E. coli tRNA methylases” value [3] is listed as “inhibitory to tRNA methylases isolated from E. coli”.
For `N#Cc1cn([C@@H]2O[C@H](CO)[C@@H](O)[C@H]2O)c2ncnc(N)c12` [toyocamycin], the “formation of mature rRNA” value [1] is given as “inhibit the formation of mature 28S and 18” and the “maturation of rRNA” value (rRNA of S. cerevisiae) is given as “inhibit the maturation of rRNA”.
In the case of `Nc1ncnc2c1nnn2[C@@H]1C[C@H](CO)[C@@H](O)[C@H]1O` [8-azaaristeromycin], the inhibition (bovine liver SAHH) is listed as 46%.
In the case of `Nc1ncnc2c1ncn2[C@@H]1O[C@H](CO)[C@H](O)[C@H]1O` [xylosyladenine, 9-B-D-xylofuranosyladenine], the DNA methylation (RNA methylation) is listed as “not inhibited”, the “formation of methyluridine, 2'-O-methylcytidine, 5-methyluridine and 5-methylcytidine in RNA” value (RNA methylation) is listed as “reduced” and the “inhibition of RNA methylation” value (RNA methylation) is listed as “marked inhibition of RNA methylation”.
In the case of `Nc1ncnc2c1ncn2[C@@H]1O[C@H](COP(=O)(O)NP(=O)(O)OP(=O)(O)O)[C@@H](O)[C@H]1O` [AMPNPP], the “effectiveness, fold versus AMPCPP” value (SAM synthetase) is listed as “about 1000 fold”, the “inhibition constant, fold less than the Km of ATP” value (SAM synthetase) is listed as 60 fold and the “substrate and inhibitor of SAM synthetase” value (SAM synthetase) is listed as “both a substrate for SAM synthetase and a potent inhibitor”.
For `Nc1ncnc2c1ncn2C[C@H](O)[C@@H](O)C(=O)O` [L-threo-eritadenine], the “inactivation of SAH” value (SAH in hepatocytes) is listed as “inactivate SAH in hepatocytes”.
In the case of `Nc1nccc2c1ncn2[C@@H]1C[C@H](CO)[C@@H](O)[C@H]1O` [c^3 -Ari, 3-deazaaristeromycin], the inhibition (bovine liver SAHH) is given as 97%, the “methylation of 28S rRNA, 18S rRNA and tRNA” value [4] is given as “inhibit the methylation of 28S rRNA, 18S rRNA and tRNA” and the “antiviral activity and cytotoxicity vs first generation” value (SAHH hydrolase) is given as “retained antiviral activity and considerably lower cytotoxicity than their parent first generation inhibitors”.
In the case of `Nc1ncnc2nc[nH]c12` [adenine], the “inhibition of tRNA methylases” value (tRNA methylases) is given as “gave inhibition that would be acceptable” and the “inhibition of E. coli tRNA methylases” value [3] is given as “inhibitory to tRNA methylases isolated from E. coli”.
In the case of `Nc1ncnc2c1ncn2C[C@@H](O)[C@@H](O)C(=O)O` [D-eritadine], the “inactivation of SAH” value (SAH in hepatocytes) is given as “inactivate SAH in hepatocytes”.
For `CCCCCC[C@H]([C@H](C)O)n1cnc2c(N)ncnc21` (relative stereo) [erythro-9-(2-hydroxy-3-nonyl)adenine], the ADA inhibition (adenosine deaminase) is given as “inhibitors of ADA” and the “inhibition of lysosomal ADA” value (lysosomal ADA) is given as over 97%.
For `COC(=O)C(N)(C=CCN)CF` (racemic) [DL-α-monofluoromethyldehydroornithine methylester], the Ki [5] is listed as 3 µM.
In the case of `CCOC(=O)/C=C\C(=O)OCC` [diethyl maleate], the depletion of glutathione (glutathione) is listed as “depleted liver and aortic glutathione”.
In the case of `CN(Cc1cnc2nc(N)nc(N)c2n1)c1ccc(C(=O)N[C@@H](CCC(=O)O)C(=O)O)cc1` [Methotrexate], the SAH metabolism ([6]; cultured cells and patients) is listed as “affects SAH metabolism”, the methylation reactions ([6]; low concentrations, in vitro) is listed as “interfere with specific methylation reactions” and the inhibition [2] is listed as “potently inhibited”.
